Where two headings read alike, the source gives them in different places.

Consider 2 molecules from PMC7305236, “The atypical chemokine receptor ACKR3/CXCR7 is a broad-spectrum scavenger for opioid peptides” (Nature Communications, 2020).

What all share (design): dose or concentration left out as unconfirmed
For one assay, the target named is T1, CCR9 (Homo sapiens, UniProt P51686).
T1 construct: expressed in transfected cells
T1 sequence (P51686 1-369): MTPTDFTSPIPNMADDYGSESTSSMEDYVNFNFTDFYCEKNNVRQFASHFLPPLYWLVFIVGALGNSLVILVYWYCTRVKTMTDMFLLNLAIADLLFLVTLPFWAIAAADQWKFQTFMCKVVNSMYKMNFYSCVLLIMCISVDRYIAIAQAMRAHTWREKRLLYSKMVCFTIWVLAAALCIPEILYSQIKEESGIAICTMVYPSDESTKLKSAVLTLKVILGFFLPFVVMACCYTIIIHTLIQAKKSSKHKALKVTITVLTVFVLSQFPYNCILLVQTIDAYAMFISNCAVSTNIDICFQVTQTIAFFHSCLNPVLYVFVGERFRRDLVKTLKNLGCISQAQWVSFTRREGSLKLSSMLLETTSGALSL
In words: Figure S2a opioid peptide screen on chemokine receptors. The class given is cell-based.

The next assay has as its target T2, CCR10 (Homo sapiens, UniProt P46092).
T2 construct: expressed in transfected cells
T2 sequence (P46092 1-362): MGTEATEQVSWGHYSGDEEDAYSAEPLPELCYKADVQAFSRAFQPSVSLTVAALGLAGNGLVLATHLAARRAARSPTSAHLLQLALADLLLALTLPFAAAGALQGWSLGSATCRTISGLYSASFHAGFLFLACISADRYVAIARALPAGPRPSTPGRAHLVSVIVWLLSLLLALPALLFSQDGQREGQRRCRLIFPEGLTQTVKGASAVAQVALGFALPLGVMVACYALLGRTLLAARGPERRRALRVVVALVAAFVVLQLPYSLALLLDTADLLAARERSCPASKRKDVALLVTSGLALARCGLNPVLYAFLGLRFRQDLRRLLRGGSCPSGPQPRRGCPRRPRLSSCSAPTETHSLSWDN
Described as above. The class given is cell-based.

The target in a further assay is T3, CXCR1 (Homo sapiens, UniProt P25024).
T3 construct: expressed in transfected cells
T3 sequence (P25024 1-350): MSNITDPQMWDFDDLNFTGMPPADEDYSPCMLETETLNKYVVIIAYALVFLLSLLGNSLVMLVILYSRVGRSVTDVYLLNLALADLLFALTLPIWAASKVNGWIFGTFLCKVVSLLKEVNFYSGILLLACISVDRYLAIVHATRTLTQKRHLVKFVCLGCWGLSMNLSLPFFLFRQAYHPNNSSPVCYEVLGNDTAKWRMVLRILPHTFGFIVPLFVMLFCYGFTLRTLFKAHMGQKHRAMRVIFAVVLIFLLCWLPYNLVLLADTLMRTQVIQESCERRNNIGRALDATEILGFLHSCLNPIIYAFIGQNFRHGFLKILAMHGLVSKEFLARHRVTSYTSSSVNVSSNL
The assay is described as above. The class given is cell-based.

The target in a further assay is T4, CXCR6 (Homo sapiens, UniProt O00574).
T4 construct: expressed in transfected cells
T4 sequence (O00574 whole entry): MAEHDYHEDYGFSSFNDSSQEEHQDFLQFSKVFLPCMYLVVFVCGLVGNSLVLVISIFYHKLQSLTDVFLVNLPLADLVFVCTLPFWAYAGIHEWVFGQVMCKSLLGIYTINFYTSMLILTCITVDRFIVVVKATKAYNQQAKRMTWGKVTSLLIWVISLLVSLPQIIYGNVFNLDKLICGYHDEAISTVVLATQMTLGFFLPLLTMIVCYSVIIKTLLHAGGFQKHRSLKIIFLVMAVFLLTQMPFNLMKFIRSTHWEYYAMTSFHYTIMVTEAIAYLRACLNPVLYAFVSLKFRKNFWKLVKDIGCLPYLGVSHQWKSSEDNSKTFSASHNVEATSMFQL
The assay is described as above. Format: cell-based.

The next assay has as its target ACKR3 (Homo sapiens, UniProt P25106). In words: cell-based. As to conditions: read-out: ACKR3 activity, ctrl+ = 100, Figure S2a.
The next assay deals with T5, CCR3 (Homo sapiens, UniProt P51677).
T5 sequence (P51677 1-355): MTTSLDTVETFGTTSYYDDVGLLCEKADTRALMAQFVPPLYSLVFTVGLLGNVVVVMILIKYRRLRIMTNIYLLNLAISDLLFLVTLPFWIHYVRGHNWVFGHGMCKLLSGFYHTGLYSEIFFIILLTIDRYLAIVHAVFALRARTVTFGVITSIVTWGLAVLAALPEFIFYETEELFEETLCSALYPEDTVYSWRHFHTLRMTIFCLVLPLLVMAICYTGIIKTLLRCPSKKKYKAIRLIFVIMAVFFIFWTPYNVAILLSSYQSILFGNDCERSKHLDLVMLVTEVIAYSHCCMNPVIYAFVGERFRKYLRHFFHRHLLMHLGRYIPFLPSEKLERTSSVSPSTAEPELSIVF
In words: Figure S2a opioid peptide screen on chemokine receptors. As to conditions: read-out: CCR3 activity, ctrl+ = 100, Figure S2a.

A further assay addresses CCR8 (Homo sapiens, UniProt P51685). The assay is described as above. The following applies: read-out: CCR8 activity, ctrl+ = 100, Figure S2a.
Another assay has as its target T6, ACKR4 (Homo sapiens, UniProt Q9NPB9).
T6 sequence (Q9NPB9 1-350): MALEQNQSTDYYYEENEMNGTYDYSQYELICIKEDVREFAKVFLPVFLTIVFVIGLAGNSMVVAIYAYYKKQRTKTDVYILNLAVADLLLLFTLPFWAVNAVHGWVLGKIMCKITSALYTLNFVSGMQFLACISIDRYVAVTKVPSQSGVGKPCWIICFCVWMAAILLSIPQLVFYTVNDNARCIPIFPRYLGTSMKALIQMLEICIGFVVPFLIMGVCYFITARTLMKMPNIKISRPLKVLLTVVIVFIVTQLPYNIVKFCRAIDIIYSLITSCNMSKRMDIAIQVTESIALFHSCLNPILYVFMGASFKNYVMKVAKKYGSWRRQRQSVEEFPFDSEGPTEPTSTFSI
The assay is described as above. As to conditions: read-out: ACKR4 activity, ctrl+ = 100, Figure S2a.

[1] abbreviates: replicate 1, read-out: CCR9 activity, ctrl+ = 100.
[2] abbreviates: replicate 2, read-out: CCR9 activity, ctrl+ = 100.
[3] abbreviates: replicate 1, read-out: CCR10 activity, ctrl+ = 100.
[4] abbreviates: replicate 2, read-out: CCR10 activity, ctrl+ = 100.
[5] abbreviates: replicate 1, read-out: CXCR1 activity, ctrl+ = 100.
Where [6] appears, read: replicate 2, read-out: CXCR1 activity, ctrl+ = 100.
[7] abbreviates: replicate 1, read-out: CXCR6 activity, ctrl+ = 100.
Setting [8] is: replicate 2, read-out: CXCR6 activity, ctrl+ = 100.

Sequence of CCR8 (P51685 whole entry): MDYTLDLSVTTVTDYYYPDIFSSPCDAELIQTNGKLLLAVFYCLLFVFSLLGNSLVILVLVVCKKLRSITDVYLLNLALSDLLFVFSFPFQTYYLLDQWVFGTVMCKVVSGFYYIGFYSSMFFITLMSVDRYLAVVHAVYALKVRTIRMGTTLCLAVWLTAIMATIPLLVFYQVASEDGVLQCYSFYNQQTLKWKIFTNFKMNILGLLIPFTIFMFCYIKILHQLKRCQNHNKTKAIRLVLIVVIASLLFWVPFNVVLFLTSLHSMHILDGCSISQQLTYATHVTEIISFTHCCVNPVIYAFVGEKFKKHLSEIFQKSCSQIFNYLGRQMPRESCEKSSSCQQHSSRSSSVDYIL
Sequence of ACKR3 (P25106 whole entry): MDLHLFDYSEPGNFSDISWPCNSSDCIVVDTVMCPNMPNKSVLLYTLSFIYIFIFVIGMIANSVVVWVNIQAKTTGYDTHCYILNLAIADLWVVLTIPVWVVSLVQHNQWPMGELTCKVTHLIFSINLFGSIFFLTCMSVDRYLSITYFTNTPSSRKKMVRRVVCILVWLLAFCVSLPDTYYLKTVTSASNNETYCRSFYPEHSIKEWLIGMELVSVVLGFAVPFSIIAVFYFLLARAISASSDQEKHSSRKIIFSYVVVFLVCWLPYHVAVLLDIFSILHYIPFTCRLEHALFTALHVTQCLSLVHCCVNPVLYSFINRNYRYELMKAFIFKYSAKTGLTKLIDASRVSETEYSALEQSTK

`C[C@H](NC(=O)CNC(=O)[C@@H](NC(=O)[C@H](Cc1ccccc1)NC(=O)CNC(=O)CNC(=O)[C@@H](N)Cc1ccccc1)[C@@H](C)O)C(=O)N[C@@H](CCCNC(=N)N)C(=O)N[C@@H](CCCCN)C(=O)N[C@@H](CO)C(=O)N[C@@H](C)C(=O)N[C@@H](CCCNC(=N)N)C(=O)N[C@@H](CCCCN)C(N)=O` [Nociceptin 1-13]: the activation was -3.6% at CCR9 (setting [1]); -1.89% at CCR9 (setting [2]); 2.5% at CCR9 (replicate 3, read-out: CCR9 activity, ctrl+ = 100); 2.26% on CCR10 (setting [3]); -5.16% on CCR10 (setting [4]); 3.57% on CCR10 (replicate 3, read-out: CCR10 activity, ctrl+ = 100). Besides, the activation on CXCR1 (setting [5]) was 0.237%; at CXCR1 (setting [6]) it was 1.23%; at CXCR1 (replicate 3, read-out: CXCR1 activity, ctrl+ = 100), -0.725%; at CXCR6 (setting [7]), -0.349%; at CXCR6 (setting [8]), -0.882%; on CXCR6 (replicate 3, read-out: CXCR6 activity, ctrl+ = 100), 2.41%. In addition, the activation at ACKR3 (replicate 1) amounted to 19.7%; at ACKR3 (replicate 2) it was 20.3%; on ACKR3 (replicate 3) it was 51.3%; on CCR3 (replicate 1) it was 6.49%; at CCR3 (replicate 2), 6.25%; on CCR3 (replicate 3), 14.8%. Besides, the activation at CCR8 (replicate 1) is -35.6%; at CCR8 (replicate 2), -2.22%; on CCR8 (replicate 3) it was 6.11%; at ACKR4 (replicate 1), -3.36%; at ACKR4 (replicate 2), -5.01%; on ACKR4 (replicate 3), 1.05%.

As for `CC(C)C[C@H](NC(=O)[C@H](CCCCN)NC(=O)[C@H](CCCN=C(N)N)NC(=O)[C@H](C)NC(=O)[C@H](CO)NC(=O)[C@H](CCCCN)NC(=O)[C@H](CCCN=C(N)N)NC(=O)[C@H](C)NC(=O)CNC(=O)[C@@H](NC(=O)[C@H](Cc1ccccc1)NC(=O)CNC(=O)CNC(=O)[C@@H](N)Cc1ccccc1)[C@@H](C)O)C(=O)N[C@@H](C)C(=O)N[C@@H](CC(N)=O)C(=O)N[C@@H](CCC(N)=O)C(=O)O` [Nociceptin], the activation is 0.361% at CCR9 (setting [1]); 3.44% at CCR9 (setting [2]); -2.56% on CCR10 (setting [3]); -4.7% at CCR10 (setting [4]); -0.193% on CXCR1 (setting [5]); 0.511% at CXCR1 (setting [6]). Moreover, the activation is -0.607% at CXCR6 (setting [7]); -0.718% on CXCR6 (setting [8]); 1.08% at ACKR3 (replicate 2); 8.85% on CCR3 (replicate 1); -14.3% on CCR3 (replicate 2); 27.1% on CCR8 (replicate 1). The figures for the activation on CCR8 (replicate 2), on ACKR4 (replicate 1) and on ACKR4 (replicate 2) were -5.76%, -1% and -5.23%, respectively.
